Here are results for twelve compounds from patent publication US9920060B2, “Pyrazolo[3,4-d]pyrimidine compound or salt thereof” (TAIHO PHARMACEUTICAL CO., LTD., priority 2015, dated 2018).

purified recombinant human HER2 protein, sequence (P04626 23-1255): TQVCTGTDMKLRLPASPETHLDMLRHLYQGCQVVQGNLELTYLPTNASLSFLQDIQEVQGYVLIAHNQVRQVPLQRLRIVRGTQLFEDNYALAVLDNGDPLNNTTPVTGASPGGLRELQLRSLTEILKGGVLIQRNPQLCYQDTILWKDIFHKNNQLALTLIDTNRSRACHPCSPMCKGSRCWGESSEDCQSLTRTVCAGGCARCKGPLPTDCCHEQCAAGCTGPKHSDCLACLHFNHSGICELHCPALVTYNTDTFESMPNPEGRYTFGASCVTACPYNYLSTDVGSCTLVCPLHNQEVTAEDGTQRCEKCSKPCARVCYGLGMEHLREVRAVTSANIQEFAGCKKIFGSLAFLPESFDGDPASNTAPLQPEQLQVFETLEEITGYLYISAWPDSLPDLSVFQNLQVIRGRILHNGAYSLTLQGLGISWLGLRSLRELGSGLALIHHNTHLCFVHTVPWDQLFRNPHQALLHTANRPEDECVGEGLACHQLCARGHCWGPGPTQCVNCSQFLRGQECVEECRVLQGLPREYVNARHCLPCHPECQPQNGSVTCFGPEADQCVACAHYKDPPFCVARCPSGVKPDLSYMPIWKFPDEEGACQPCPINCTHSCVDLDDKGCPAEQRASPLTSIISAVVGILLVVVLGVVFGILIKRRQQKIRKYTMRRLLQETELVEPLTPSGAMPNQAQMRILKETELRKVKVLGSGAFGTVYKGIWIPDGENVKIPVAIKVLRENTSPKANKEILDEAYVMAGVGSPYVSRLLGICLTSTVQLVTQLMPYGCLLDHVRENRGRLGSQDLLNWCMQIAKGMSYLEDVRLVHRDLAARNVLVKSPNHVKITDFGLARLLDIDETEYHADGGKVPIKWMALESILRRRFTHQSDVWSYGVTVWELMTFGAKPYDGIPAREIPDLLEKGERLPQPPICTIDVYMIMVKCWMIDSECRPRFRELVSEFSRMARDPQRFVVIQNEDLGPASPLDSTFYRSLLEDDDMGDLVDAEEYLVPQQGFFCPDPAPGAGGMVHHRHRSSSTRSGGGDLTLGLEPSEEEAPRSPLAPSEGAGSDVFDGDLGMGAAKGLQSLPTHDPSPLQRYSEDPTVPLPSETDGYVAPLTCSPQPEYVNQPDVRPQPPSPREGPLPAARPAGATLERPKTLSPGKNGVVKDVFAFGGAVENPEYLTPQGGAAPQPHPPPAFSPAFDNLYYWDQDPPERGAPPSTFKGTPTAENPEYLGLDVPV

The target in one assay is purified recombinant human HER2 protein (Homo sapiens (Human), UniProt P04626). As to the kind of experiment: Inhibitory effect on HER2-phosphorylating activity (in vitro). Format: biochemical. As to conditions: ATP 6 uM, substrate peptide 0.5 uM, 25° C. for 40 minutes. The protocol:
Next, the HER2 protein, the substrate peptide (final concentration: 0.5 uM), manganese chloride (final concentration: 10 mM), ATP (final concentration: 6 uM), and the solution of the compound of the present invention in DMSO (final concentration of DMSO: 5%) were added into a buffer solution for kinase reaction (15 mM Tris (pH 7.5), 2 mM dithiothreitol, and 0.01% Tween 20), and the mixture was incubated at 25° C. for 40 minutes for kinase reaction. The reaction was terminated by adding EDTA (final concentration: 30 mM) thereto. Finally, the unphosphorylated substrate peptide (S) and the phosphorylated peptide (P) were separated and detected by microcapillary electrophoresis using LabChip® EZ Reader II (PerkinElmer Inc.).
As usually defined, the IC50 is the midpoint of a concentration-inhibition curve. As to `C=CC(=O)N1CCC[C@@H](n2nc(C(=O)Nc3ccc(CC(=O)N4CCCC4)cc3C)c3c(N)ncnc32)C1` [Example 71, (R)-1-(1-acryloylpiperidin-3-yl)-4-amino-N-(2-methyl-4-(2-oxo-2-(pyrrolidin-1-yl)ethyl)phenyl)-1H-pyrazolo[3,4-d]pyrimidine-3-carboxamide], the IC50 stood at 11 nM.

Turning to `C=CC(=O)N1CCC[C@@H](n2nc(C(=O)Nc3ccc(NC(=O)N(C)C)cc3C)c3c(N)ncnc32)C1` [Example 74, (R)-1-(1-acryloylpiperidin-3-yl)-4-amino-N-(4-(3,3-dimethylureido)-2-methylphenyl)-1H-pyrazolo[3,4-d]pyrimidine-3-carboxamide], the IC50 is 17 nM.

`C=CC(=O)N1CCC[C@@H](n2nc(C(=O)Nc3cc(C)c(CC(=O)N(C)C)cc3C)c3c(N)ncnc32)C1` [Example 39, (R)-1-(1-acryloylpiperidin-3-yl)-4-amino-N-(4-(2-(dimethylamino)-2-oxoethyl)-2,5-dimethylphenyl)-1H-pyrazolo[3,4-d]pyrimidine-3-carboxamide]: the IC50 came to 22 nM.

For the compound `C=CC(=O)N1CCC[C@@H](n2nc(C(=O)Nc3ccc(CC(=O)N(C)C)c(C)c3C)c3c(N)ncnc32)C1` [Example 13, (R)-1-(1-acryloylpiperidin-3-yl)-4-amino-N-(4-(2-(dimethylamino)-2-oxoethyl)-2,3-dimethylphenyl)-1H-pyrazolo[3,4-d]pyrimidine-3-carboxamide], the IC50 amounted to 13 nM.

With `C=CC(=O)N1CCC[C@@H](n2nc(C(=O)Nc3ccc(NC(=O)N4CCCC4)cc3C)c3c(N)ncnc32)C1` [Example 75, (R)-1-(1-acryloylpiperidin-3-yl)-4-amino-N-(2-methyl-4-(pyrrolidine-1-carboxamido)phenyl)-1H-pyrazolo[3,4-d]pyrimidine-3-carboxamide], the IC50 was found to be 16 nM.

In the case of `C=CC(=O)N1CCC[C@@H](n2nc(C(=O)Nc3ccc(CC(=O)N4CC(O)C4)cc3C)c3c(N)ncnc32)C1` [Example 73, (R)-1-(1-acryloylpiperidin-3-yl)-4-amino-N-(4-(2-(3-hydroxyazetidin-1-yl)-2-oxoethyl)-2-methylphenyl)-1H-pyrazolo[3,4-d]pyrimidine-3-carboxamide], the IC50 stood at 74 nM.

In the case of `C=CC(=O)N1CC(F)C[C@@H](n2nc(C(=O)Nc3ccc(CC(=O)N(C)C)cc3Cl)c3c(N)ncnc32)C1` (stereo partly drawn) [Example 76, 1-((3R)-1-acryloyl-5-fluoropiperidin-3-yl)-4-amino-N-(2-chloro-4-(2-(dimethylamino)-2-oxoethyl)phenyl)-1H-pyrazolo[3,4-d]pyrimidine-3-carboxamide], the IC50 was determined as 5 nM.

For the compound `C=CC(=O)N1CCC[C@@H](n2nc(C(=O)Nc3ccc(CC(=O)N(C)C)c4ccccc34)c3c(N)ncnc32)C1` [Example 5, (R)-1-(1-acryloylpiperidin-3-yl)-4-amino-N-(4-(2-(dimethylamino)-2-oxoethyl)naphthalen-1-yl)-1H-pyrazolo[3,4-d]pyrimidine-3-carboxamide], the IC50 came out at 11 nM.

`C=CC(=O)N1CC(F)C[C@@H](n2nc(C(=O)Nc3ccc(CC(=O)N(C)C)c(C)c3C)c3c(N)ncnc32)C1` (stereo partly drawn) [Example 77, 1-((3R)-1-acryloyl-5-fluoropiperidin-3-yl)-4-amino-N-(4-(2-(dimethylamino)-2-oxoethyl)-2,3-dimethylphenyl)-1H-pyrazolo[3,4-d]pyrimidine-3-carboxamide]: the IC50 was 13 nM.

Regarding `C=CC(=O)N1CCC[C@@H](n2nc(C(=O)Nc3ccc(OC(=O)N(C)C)cc3)c3c(N)ncnc32)C1` [Example 21, (R)-4-(1-(1-acryloylpiperidin-3-yl)-4-amino-1H-pyrazolo[3,4-d]pyrimidine-3-carboxamido)phenyldimethyl carbamate], the IC50 was 26 nM.

In the case of `C=CC(=O)N1CCC[C@@H](n2nc(C(=O)Nc3ccc(CC(=O)N(C)C)cc3F)c3c(N)ncnc32)C1` [Example 25, (R)-1-(1-acryloylpiperidin-3-yl)-4-amino-N-(4-(2-(dimethylamino)-2-oxoethyl)-2-fluorophenyl)-1H-pyrazolo[3,4-d]pyrimidine-3-carboxamide], the half-maximal inhibitory concentration (IC50) turned out to be 21 nM.

Another assay deals with A431 cells. The experiment in a line: Cytostatic activity against EGFR-expressing cell line A431 (CellTiter-Glo). Format: cell-based. As to conditions: EGFR-overexpressing human epithelioid cancer cell line, 3-day culture; read-out: A431 cell growth inhibitory activity IC50 value. An excerpt: HER2-overexpressing human stomach cancer cell line NCI-N87 cells were suspended in RPMI1640 medium (manufactured by Life Technologies Corp.) containing 10% fetal bovine serum. Meanwhile, EGFR-overexpressing highly activated human epithelioid cancer cell line A431 cells were suspended in DMEM, high glucose medium (manufactured by Life Technologies Corp.) containing 10% fetal bovine serum. Subsequently, each cell suspension was inoculated to each well of a 384-well flat-bottom microplate and cultured at 37° C. for 1 day in an incubator containing 5% carbon dioxide. The compound of the present invention or Comparative Example compound 1 was dissolved in DMSO, and the test compound was diluted into a concentration of 500 times the final concentration using DMSO. The solution of the test compound in DMSO was diluted with the medium used in the suspension of each cell line, and this solution was added at a final concentration of DMSO of 0.2% to each well of the cell culture plate, followed by further culture at 37° C. for 3 days in an incubator containing 5% carbon dioxide.
Rate of growth inhibition (%)=(C−T)/(C)×100 T: Luminescence intensity of a well supplemented with the test compound C: Luminescence intensity of a well not supplemented with the test compound
(Cellular ATP, detected with luciferase, serves as a proxy for viable cell number.)
Regarding “(R,E)-4-(4-amino-1-(1-(4-dimethylamino)but-2-enoyl)piperidin-3-yl)-1H-pyrazolo[3,4-d]pyrimidine-3-carboxamido)naphthalen-1-yl dimethylcarbamate [Example 66]”, the IC50 turned out to be 6040 nM.
